Data as given in paper PMC7016953 (Cells, 2020).

Key:
TRPC3 [1] = molecular target: T1, TRPC3 (Homo sapiens, UniProt Q13507); assay: Fluo-4 Ca2+ influx assay in HEK TRPC3-YFP cell suspensions; format: cell-based
T1 construct: expressed in transfected cells
T1 sequence (Q13507 1-848 isoform Q13507-3): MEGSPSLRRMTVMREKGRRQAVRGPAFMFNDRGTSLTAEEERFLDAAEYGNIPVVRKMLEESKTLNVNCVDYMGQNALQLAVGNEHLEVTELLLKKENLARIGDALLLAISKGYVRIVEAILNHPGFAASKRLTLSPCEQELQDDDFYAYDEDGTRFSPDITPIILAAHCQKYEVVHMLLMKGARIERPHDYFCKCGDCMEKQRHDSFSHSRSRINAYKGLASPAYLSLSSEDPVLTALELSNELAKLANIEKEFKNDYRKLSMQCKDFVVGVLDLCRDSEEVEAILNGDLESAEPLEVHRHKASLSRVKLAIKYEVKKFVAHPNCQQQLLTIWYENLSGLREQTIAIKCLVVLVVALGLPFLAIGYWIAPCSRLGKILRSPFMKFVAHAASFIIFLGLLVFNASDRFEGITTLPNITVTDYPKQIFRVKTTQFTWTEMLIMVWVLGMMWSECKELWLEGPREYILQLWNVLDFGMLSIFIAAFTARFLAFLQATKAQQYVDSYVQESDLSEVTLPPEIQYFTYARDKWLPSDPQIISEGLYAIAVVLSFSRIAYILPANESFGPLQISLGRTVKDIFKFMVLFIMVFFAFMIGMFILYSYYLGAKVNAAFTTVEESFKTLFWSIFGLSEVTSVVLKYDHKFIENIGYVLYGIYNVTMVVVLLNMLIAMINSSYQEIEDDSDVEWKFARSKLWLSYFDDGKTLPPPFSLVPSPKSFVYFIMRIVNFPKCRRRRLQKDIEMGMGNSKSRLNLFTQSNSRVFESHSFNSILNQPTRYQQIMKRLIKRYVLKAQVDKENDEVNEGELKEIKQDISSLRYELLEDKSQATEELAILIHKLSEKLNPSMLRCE

[2] = test system: PC12 cells (native TRPC3 channel complexes); assay: [Ca2+]i analysis in fura-2-loaded PC12 cells; format: cell-based, rat; conditions: artemisinin 50 or 100 µM; 6–12 experiments for each compound
Experimental: Human embryonic kidney 293 (HEK293) cells were stably transfected with expression plasmids that encode hTRPC3-YFP, hTRPC6-YFP, hTRPC7-YFP, mTRPC4ß-YFP, rTRPV1-CFP, rTRPV2-YFP, rTRPV3-YFP, mTRPV4-YFP, or hTRPM2 as previously described. Cell lines were cultured in Earle’s minimum essential medium (MEM; Sigma, Munich, Germany), supplemented with 10% fetal calf serum (Gibco Thermo Fisher Scientific, Darmstadt, Germany), 2 mM L-glutamine, and required concentrations of geneticin in a range of 0.4–1 mg/mL. A HEK293mTRPC5-YFP cell line was maintained and induced as described before. The HEK293mTRPM3α2 cells (expressing the Ca^2+-permeable main variant of mouse TRPM3) were kindly provided by Johannes Oberwinkler (Marburg, Germany), the HEK293hTRPA1 cells that constitutively overexpress the human TRPA1 were from Dr. Natalie Tigue and Dr. Steve Moore (GlaxoSmithKline, Harlow, UK). With the exception of mTRPC5-YFP, all cell lines constitutively overexpress the respective TRP channel under the control of a cytomegalovirus (CMV) promoter. A HEK cell line stably expressing the human protein kinase C (PKC) ε C-terminally tagged with YFP [13] was generated and maintained in the same medium as HEKTRPC3-YFP cells. PC12 cells were cultured in RPMI-1640 (Sigma, Munich, Germany) with 10% fetal calf serum, 2 mM L-glutamine, 100 U/mL penicillin, and 0.1 mg/mL streptomycin. For electrophysiological and single cell [Ca^2+]i imaging experiments, PC12 cells were plated onto 25 mm poly-L-lysine-coated glass coverslips and measured 24–48 h after seeding. All cells were maintained at 37 °C in a 5% CO2-aerated, humidified atmosphere.
(§1) The microfluorometric single-cell [Ca^2+]i analysis was performed on an inverted epifluorescence microscope (Carl Zeiss, Jena, Germany) and calibrated as described. Cells were grown on 25 mm coverslips and loaded with 4 µM fura-2/AM (AAT Bioquest, Sunnyvale, CA, U.S.A.) in HBS containing 0.2% BSA for 30 min at 37 °C. After gently rinsing the coverslips with HBS, coverslips were mounted in a bath chamber and superfused with HBS containing 0.035% BSA.
Figure 7 Expression of TRPC3 and functional responses to TRPC activators in PC12 rat pheochromocytoma cells. (A) Immunofluorescence analysis of TRPC3 (green channel) and tyrosine hydroxylase (TH; red channel) expression in PC12 cells. Nuclei were counterstained with DAPI (blue channel). Bars: 20 µm scale. Time course of the [Ca^2+]i (B) and averaged basal and peak [Ca^2+]i values (C) were recorded by microfluorometric analysis in fura-2-loaded PC12 cells grown on glass coverslips. […] Data represent averages (B) or means and S.D. (C) of 6–12 imaging experiments for each compound. Significant increases compared to the respective basal values are indicated (#: p < 0.05; Student´s t-test for paired data).

TRPC7 = test system: T2, TRPC7; assay: Whole-cell patch-clamp recordings in HEK TRPC7-YFP cells; format: cell-based, human; conditions: 50 µM OAG, subsequent exposure
T2 construct: expressed in transfected cells
Experimental: (§2) The recordings of TRPC3, TRPC6, or TRPC7 membrane currents in HEK293 or PC12 cells were realized by using a Multiclamp 700B amplifier with a Digidata 1440A digitizer controlled by the PClamp 10 software (all Molecular Devices, Sunnyvale, CA, U.S.A.). Recordings were obtained at room temperature either in the whole-cell or in an outside-out configuration as indicated. Cells were seeded as described above, but at lower density, mounted in a chamber (Warner Instruments, Hamden, CT; U.S.A.), placed onto the stage of an inverted microscope, and perfused with required solution. The standard extracellular solution contained 140 mM NaCl, 5 mM CsCl, 2 mM MgCl2, 1 mM CaCl2, 10 mM HEPES, and 0.035% BSA adjusted to pH 7.4 with NaOH. The composition of standard intracellular solution was 140 mM CsCl, 1 mM MgCl2, 5 mM EGTA, and 10 mM HEPES adjusted to pH 7.25 with CsOH; the osmolarity was 295 mOsm l^−1. In outside-out measurements, the pipette solution contained 5 mM EGTA and 1.1 mM CaCl2 to achieve a calculated free Ca^2+ concentration of 100 nM.
(§3) Patch pipettes were pulled from borosilicate glass capillaries BG150F-8P (Science Products, Hofheim, Germany) with a PIP6 pipette puller (HEKA Elektronik, Lambrecht, Germany). […] In all whole-cell measurements, the series resistance was lower than 13 MΩ, and compensated by 70%. […]

TRPC3 [3] = test system: T3, TRPC3; assay: Microfluorometric single-cell [Ca2+]i analysis, fura-2-loaded HEK cells stably expressing TRPC3; format: cell-based, human; conditions: 100 µM OAG applied sequentially; also in HEK cells expressing mouse TRPC3
T3 construct: expressed in transfected cells
Experimental: as §1
Figure 2 Microfluorometric single-cell analysis of artemisinin-induced increases in [Ca^2+]i in fura-2-loaded HEK cells stably expressing TRPC3 (A), TRPC6 (B), or TRPC7 (C). […] Experiments were performed either in standard bath solution, containing 1 mM Ca^2+ (black lines and bars), or in a nominally Ca^2+-free HBS buffer, supplemented with 200 µM EGTA (grey lines and bars). Time courses of averaged responses (left), and statistical analysis of 6–11 independent imaging experiments with means and S.D. (right) are shown. Significant differences (p < 0.05, Student´s t-test with paired data: #, with unpaired data: *) are marked for the indicated comparisons; n.s.: difference is statistically not significant.

TRPC6 = test system: T4, TRPC6; assay: Whole-cell patch-clamp recordings in HEK TRPC6-YFP cells; format: cell-based, human; conditions: 50 µM OAG, subsequent exposure
T4 construct: expressed in transfected cells
Experimental: as §2, §3

hTRPC7-YFP = test system: T5, hTRPC7-YFP; assay: Fluo-4 Ca2+ influx assay in HEK293 cells stably expressing TRPC7; format: cell-based, human; conditions: fluo-4 concentration response analysis
T5 construct: expressed in transfected cells

hTRPC6-YFP = test system: T6, hTRPC6-YFP; assay: Fluo-4 Ca2+ influx assay in HEK293 cells stably expressing TRPC6; format: cell-based, human
T6 construct: expressed in transfected cells

[4] = test system: T7, heteromeric TRPC3:TRPC6 channel complexes; assay: Fluo-4 Ca2+ influx assay in HEK293 cells co-expressing TRPC3 and TRPC6; format: cell-based; conditions: fluo-4 concentration response analysis
T7 construct: expressed in transfected cells; host or cells: HEK293, stably co-transfected
Experimental: (§4) All fluorometric Ca^2+ assays were done in (4-(2-hydroxyethyl)-1-piperazineethanesulfonic acid) (HEPES)-buffered saline (HBS), containing 132 mM NaCl, 6 mM KCl, 1 mM MgCl2, 1 mM CaCl2, 5.5 mM D-glucose, 10 mM HEPES, and 0.035% bovine serum albumin (BSA) adjusted to pH 7.4 with NaOH. For measurements in Ca^2+-free bath solutions, a modified HBS without CaCl2 was supplemented with 200 µM ethylene glycol-bis(β-aminoethyl ether)-N,N,N′,N′-tetraacetic acid (EGTA).
(§5) The primary compound screen and the generation of concentration response curves in HEK293 cells or in PC12 cells were performed by using a custom-made fluorescence plate imager built into a robotic liquid handling station equipped with a 96-tip multichannel head (Freedom Evo 150, Tecan, Männedorf, Switzerland) as described previously. To this end, trypsinized cell suspensions were loaded with 4 µM fluo-4/AM (Invitrogen, Thermo Fisher Scientific, Waltham, MA, U.S.A.) in cell culture medium for 30 min at 37 °C. After brief centrifugation, cells were resuspended in HBS and dispensed into black pigmented, clear-bottom 384-well plates (Greiner µClear, Frickenhausen, Germany). Plates were mounted on the imager, and fluorescence signals were recorded with a cooled Zyla 5.5 camera (Andor, Belfast, UK) through a 515 nm long pass filter. The image acquisition was controlled by the µManager software (http://micro-manager.org), and excitation with a LED array (470 nm) was synchronized by the camera trigger output. After baseline recording for about 60 s, the compound libraries or serial dilutions of activators or inhibitors were added to the cells by the liquid handling device. When inhibitory potencies were evaluated, a second pipetting step with the respective reference agonist was performed. Fluorescence intensities were calculated from image stacks for each well with ImageJ (National Institutes of Health, Bethesda, MD, U.S.A.), corrected for background signals, and normalized to the initial intensities (F/F0). […]

parental HEK293 cells = assay: [Ca2+]i response in un-transfected parental HEK293 cells; format: cell-based, human; conditions: concentrations up to 50 µM
Experimental: as §4, §5

SMILES	EC50 of OAG in the presence of artemisinin (TRPC3 [1]; 30 or 100 µM artemisinin co-applied)	[Ca2+]i in fura 2-loaded PC12 cells [2]	current densities in TRPC7-expressing HEK cells (TRPC7)	further increase in [Ca2+]i after challenge with maximally effective artemisinin (TRPC3 [3])	current densities in TRPC6-expressing HEK cells (TRPC6)	fluorescence signal of the Ca2+ indicator in primary screen (TRPC3 [1]; 20 µM, acute addition)	TRPC3 activation in concentration response analysis (TRPC3 [1]; fluo-4, up to 200 µM, compared with solvent (DMSO))	effect on TRPC7 (hTRPC7-YFP)	effect on TRPC6 (hTRPC6-YFP; fluo-4 concentration response analysis)	signal in counterscreen with TRPC6-expressing cells (hTRPC6-YFP; primary screen, 20 µM)	response of cells stably transfected with both TRPC3 and TRPC6 [4]	response of un-transfected parental HEK293 cells (parental HEK293 cells)
CCCCCCCC/C=C\CCCCCCCC(=O)OC[C@H](CO)OC(C)=O [OAG, 1-oleoyl-2-acetyl-sn-glycerol]	shifted to lower concentrations	significant increases in [Ca^2+]i	caused increases in current densities	failed to induce a further increase in [Ca^2+]i	caused increases in current densities							
C[C@H]1[C@@H](O)O[C@@H]2O[C@@]3(C)CC[C@H]4[C@H](C)CC[C@@H]1[C@@]24OO3 [artenimol]						immediate and transient increase in the fluorescence signal	did not reach saturation	remained largely unaffected	marked preference to activate TRPC3, but not the closely related TRPC6 channel	no signals	in a very similar fashion as HEKTRPC3-YFP cells	no response
